Legend:
[1] = Radiofrequency (RF) heating of samples dissolved or suspended in water; format: physicochemical; settings: RF 13.56 MHz, 500 W, 250 μL sample in water; for temperature rise (in words): up to five minutes
Protocol: FIG. 1 is a plot of the temperature rise of samples comprising functionalized fullerenes according to embodiments of the invention that are dissolved or suspended in water during irradiation with RF at 13.56 MHz and 500 W RF power over a period of five minutes.
FIG. 2 is a bar graph of the temperature rise of samples comprising functionalized fullerenes according to embodiments of the invention that are dissolved or suspended in water after irradiation with RF at 13.56 MHz and 500 W RF power for 30 seconds (left bars) and 60 seconds (right bars).
Heating of a volume of water by irradiation of fullerene comprising compounds was carried out using a radiofrequency (RF) heating system (Therm Med, LLC, Erie, Pa.) operating at 13.56 MHz and 500 W RF power. A volume of 250 μL of sample dissolved or suspended in water was pipetted into a cylindrical quartz cuvette for RF exposure. The cuvette was placed on a thin horizontal Teflon sample holder positioned at a depth of 7.6 cm from RF generator.

[2] = Water solubility observation of samples; format: physicochemical

Substance | temperature rise (in words) [1] | water solubility (in words) [2] | temperature rise in 5 minutes ([1]; 5 minutes)
Polyhydroxy fullerenes [PBU] | Temperature rise was observed | – | –
Pristine C60 [FN, reference compound] | did not show a temperature rise | not water soluble | –
Gadofullerenes (Gd@C82) [GdF] | – | not water soluble | 10 °C
